# Laboratory results published in US5912266A, “Beta2 integrin cell adhesion molecule inhibitors” (American Home Products Corporation, priority 1997, dated 1999).
# Values joined by “and” are separate entries in the source; they are usually repeats but may differ in a detail not shown here. Equal entries are not always repeated.
# Test system: β1 integrin
# Assay: Adhesion of activated, β1 integrin-expressing U937 cells to human fibronectin
# Format: cell-based
# Conditions: for Percent Cells Bound: single well
# Description: U937 cells, a human monocyte-like, histiocytic lymphoma cell line, was acquired from American Type Culture Collection (ATCC No. CRL-1593). The cells were grown in the culture media described in Example I, materials. Cells were subcultured when the cell density was approximately 1×10^6 cells per ml. The β1 integrins on U937 cells were activated to bind to fibronectin by the addition of PMN Buffer, described in Example I. The human fibronectin (Gibco, No. XOO1) was diluted to 3.5 μg/ml with dPBS. A 1% Bovine Serum Albumin (BSA; Fraction V, ICN Corp., No. 810032) solution was prepared in dPBS and was sterile filtered using a […] disposable filter apparatus (Corning No. 25932-200) before use. The 1% BSA solution was used for blocking non-specific binding sites on the plastic wells of the assay plate. The assay plates used were Corning 96-well EIA/RIA plates (No. 25801).
# 350 ng of human fibronectin contained in 100 μl of dPBS was added to wells of the assay plate. The control wells were filled with dPBS only. The assay plate was incubated at room temperature for exactly two hours to allow the fibronectin to bind to the assay wells. The fibronectin solution was aspirated from the wells of the assay plate and the wells were washed 3× with 200 μl/well of dPBS. The assay wells were filled with the 1% BSA solution. Additional wells, not coated with fibronectin, were also filled with the 1% BSA solution; these wells were used to measure non-specific cell adherence to the plastic assay plate. The assay plate was incubated for 30 minutes at room temperature. The 1% BSA solution was removed from the wells of the assay plate by aspiration using a multichannel pipettor. The assay wells were washed 3× with 200 μl/well of dPBS. Approximately 50 μl of dPBS was added to the assay wells to ensure that they would not dry out prior to the initiation of the assay.
# U937 cells were harvested from culture, washed and labeled with calcein AM fluorescent dye as outlined in Example I, except that the concentration of calcein used to label U937 cells was 12.5 μM and cells were sedimented by centrifugation at 1000 rpm for 5 minutes. After the final wash (see Example I), the U937 cells were resuspended in ice-cold PMN Buffer to 1.25×10^5 cells/40 μl. The cell suspension was placed in the dark at room temperature until needed. The asperlin solutions were prepared as described in Example I.
# The 50 μl of dPBS remaining in the wells of the assay plate was removed by inverting the assay plate and tapping on paper toweling. 50 μl of the serially diluted asperlin solution was added to wells of the assay plate. Control wells received PMN buffer containing 2% DMSO and the assay plate was incubated for 10 minutes at room temperature.
# Calcein labeled cells, that had been gently mixed by swirling, were added to the wells in 40 μl volumes equal to 1.25×10^5 cells/well and 10 μl of PMA solution was immediately added to the wells of the assay plate and the assay was continued as described in Example 1. 100 μl of PMN buffer was added to all wells of the assay plate. The fluorescence of the adherent, activated β1 integrin expressing cells was measured using a fluorescent plate reader, as described in Example I.
# The percentage of β1 integrin expressing cells adhering to fibronectin coated wells was quantitated by the equation: % Cells Bound=((Bound Cell Fluorescence-Average Bound Fluorescence of the Non-specific Binding Control).div.Total Cell Fluorescence)×100.
smiles,measurement,setting,value
"CC(=O)OC1C=CC(=O)OC1C1OC1C [Asperlin, 6,7-Anhydro-2,3,8-trideoxy-D-galacto-oct-2-enoic acidδ-lactone 4-acetate]",% Inhibition Cell Adhesion,Asperlin 1.56 μg/ml,-9%
same,Average Percent Bound,Asperlin 1.56 μg/ml,75%
same,Bound Cell Fluorescence,Asperlin 1.56 μg/ml,3002 fluorescence units/well and 3140 fluorescence units/well and 3132 fluorescence units/well
same,Percent Cells Bound,Asperlin 1.56 μg/ml,75% and 76% and 74%
same,% Inhibition Cell Adhesion,Asperlin 3.125 μg/ml,-9%
same,Average Percent Bound,Asperlin 3.125 μg/ml,75%
same,Bound Cell Fluorescence,Asperlin 3.125 μg/ml,3132 fluorescence units/well and 3140 fluorescence units/well and 2895 fluorescence units/well
same,Percent Cells Bound,Asperlin 3.125 μg/ml,76% and 75% and 73%
same,% Inhibition Cell Adhesion,Asperlin 6.25 μg/ml,10%
same,Average Percent Bound,Asperlin 6.25 μg/ml,62%
same,Bound Cell Fluorescence,Asperlin 6.25 μg/ml,2292 fluorescence units/well and 2344 fluorescence units/well and 2529 fluorescence units/well
same,Percent Cells Bound,Asperlin 6.25 μg/ml,60% and 65%
same,% Inhibition Cell Adhesion,Asperlin 12.5 μg/ml,-1%
same,Average Percent Bound,Asperlin 12.5 μg/ml,70%
same,Bound Cell Fluorescence,Asperlin 12.5 μg/ml,2331 fluorescence units/well and 2683 fluorescence units/well and 2985 fluorescence units/well
same,Percent Cells Bound,Asperlin 12.5 μg/ml,64% and 71% and 74%
same,% Inhibition Cell Adhesion,Asperlin 25 μg/ml,0%
same,Average Percent Bound,Asperlin 25 μg/ml,69%
same,Bound Cell Fluorescence,Asperlin 25 μg/ml,2404 fluorescence units/well and 2870 fluorescence units/well and 2969 fluorescence units/well
same,Percent Cells Bound,Asperlin 25 μg/ml,61% and 71% and 75%
same,% Inhibition Cell Adhesion,Asperlin 50 μg/ml,-6%
same,Average Percent Bound,Asperlin 50 μg/ml,73%
same,Bound Cell Fluorescence,Asperlin 50 μg/ml,2391 fluorescence units/well and 2791 fluorescence units/well and 3203 fluorescence units/well
same,Percent Cells Bound,Asperlin 50 μg/ml,68% and 74% and 77%
same,% Inhibition Cell Adhesion,Asperlin 100 μg/ml,0%
same,Average Percent Bound,Asperlin 100 μg/ml,69%
same,Bound Cell Fluorescence,Asperlin 100 μg/ml,2466 fluorescence units/well and 2854 fluorescence units/well and 3194 fluorescence units/well
same,Percent Cells Bound,Asperlin 100 μg/ml,61% and 70% and 75%
same,% Inhibition Cell Adhesion,Asperlin 200 μg/ml,3%
same,Average Percent Bound,Asperlin 200 μg/ml,67%
same,Bound Cell Fluorescence,Asperlin 200 μg/ml,2222 fluorescence units/well and 2736 fluorescence units/well and 2846 fluorescence units/well
same,Percent Cells Bound,Asperlin 200 μg/ml,61% and 68% and 71%
same,Effect on adhesion of β1 integrin expressing cells to fibronectin (in words),summary of Table II,does not block the adhesion of β1 integrin expressing cells to fibronectin
